Key:
[1] = intrinsic dissolution rate (US Pharmacopoeia, chapter 1087); type: physicochemical
Protocol: The intrinsic dissolution rate was measured by the procedure set out in the US Pharmacopoeia, chapter 1087.

[2] = stability in aqueous media; type: physicochemical; conditions: 0.2 mg/ml; for stability in aqueous media (in words): 50° C. and room temperature; for Stability in aqueous media (24 hrs at 50° C.) / Stability in aqueous media (24 hrs at room temperature): sodium salt in water, free acid in 1:1 water and acetonitrile; for Stability in aqueous media (24 hrs at 50° C.): amber vial
Protocol: To measure the stability in aqueous media, the sodium salt was dissolved in water at a concentration of 0.2 mg/ml. Due to the very poor aqueous solubility of the free acid, the free acid was dissolved in a 1:1 mixture of water and acetonitrile at the same concentration of 0.2 mg/ml. Samples were kept at 50° C. in an amber vial and at room temperature in an amber vial as well as a clear vial.

[3] = thermodynamic aqueous solubility measured in water
physchem = conditions: water, thermodynamic from solid
[4] = XRPD after storage at elevated temperature and humidity (stability of polymorphic form); type: physicochemical
Protocol: X-Ray Powder Diffraction (XRPD), Ion Chromatography (IC), Karl Fischer titration (KF), Thermogravimetric Analysis (TGA), Differential Scanning Calorimetry (DSC) and high performance liquid chromatography (HPLC) techniques referred to in the examples were carried out under the following conditions: XRPD diffractograms were collected on a Bruker D8 diffractometer using CuKα radiation (40 kV, 40 mA) and a θ-2θ goniometer fitted with a Ge monochromator. The incident beam passed through a 2.0 mm divergence slit followed by a 0.2 mm antiscatter slit and knife edge. The diffracted beam passed through an 8.0 mm receiving slit with 2.5° Soller slits followed by the Lynxeye Detector. The software used for data collection and analysis was Diffrac Plus XRD Commander and Diffrac Plus EVA respectively. Samples were run under ambient conditions as flat plate specimens using powder as received. The sample was prepared on a polished, zero-background (510) silicon wafer by gently pressing onto the flat surface or packed into a cut cavity.
The XRPD spectra shown in FIG. 1 were obtained directly after preparation of the product, after storage for 1 week and for 5 weeks at 40° C. and 75% relative humidity, and after storage for 1 week and for 5 weeks at 25° C. and 97% relative humidity.
The XRPD spectra shown in FIG. 3 were obtained directly after preparation of the product, after storage for 1 week at 40° C. and 75% relative humidity, and after storage for 1 week at 25° C. and 97% relative humidity.

SMILES	Intrinsic dissolution rate (at pH 2) [1] [μg/min · mm^2]	stability in aqueous media (in words) [2]	Stability in aqueous media (24 hrs at 50° C.) [2] [% degradation]	Stability in aqueous media (24 hrs at room temperature) [2]	Aqueous Solubility ([3]; thermodynamic, in water) [mg/mL]	solubility ([3]; water, thermodynamic from solid) [mg/mL]	solubility (physchem) [mg/mL]	intrinsic dissolution rate relative to that of the free acid ([1]; sodium salt versus free acid)	stability with respect to conversion into other polymorphic forms (XRPD) ([4]; storage 1 week and 5 weeks at 40° C. and 75% relative humidity, and 1 week and 5 weeks at 25° C. and 97% relative humidity)	resulting pH of aqueous solution ([3]; in water at solubility of 81 mg/ml)	polymorphic form stability on storage at elevated humidity (XRPD) ([4]; 1 week at 25° C. and 97% relative humidity)	polymorphic form stability on storage at elevated temperature (XRPD) ([4]; 1 week at 40° C. and 75% relative humidity)
CC(C)n1ccc(S(=O)(=O)NC(=O)Nc2c3c(cc4c2CCC4)CCC3)n1 [Comparative Example 1, N-((1,2,3,5,6,7-hexahydro-s-indacen-4-yl)carbamoyl)-1-isopropyl-1H-pyrazole-3-sulfonamide free acid, reference compound]	4	unstable	94	37% degradation	<0.5	< 0.5	–	–	–	–	–	–
CC(C)n1ccc(S(=O)(=O)NC(=O)Nc2c3c(cc4c2CCC4)CCC3)n1.O.[Na] [Example 2, N-((1,2,3,5,6,7-hexahydro-s-indacen-4-yl)carbamoyl)-1-isopropyl-1H-pyrazole-3-sulfonamide monosodium monohydrate]	10	stable in aqueous media	2.7	No significant	–	–	81	at least twice as high	shows stability with respect to conversion into other polymorphic forms	9.7	–	–
CC(C)n1ccc(S(=O)(=O)NC(=O)Nc2c3c(cc4c2CCC4)CCC3)n1.[Na] [Example 3, N-((1,2,3,5,6,7-hexahydro-s-indacen-4-yl)carbamoyl)-1-isopropyl-1H-pyrazole-3-sulfonamide monosodium anhydrate]	–	–	–	–	–	–	–	–	–	–	converts to the monosodium monohydrate (Form 1)	stable at elevated temperature

From US10973803B2, “Sodium salt of N-((1,2,3,5,6,7-hexahydro-s-indacen-4-yl)carbamoyl)-1-isopropyl-1H-pyrazole-3-sulfonamide” (INFLAZOME LIMITED, priority 2018, dated 2021)
